Here are results for 24 molecules from patent publication US20230114241A1, “METHODS OF TREATING EPILEPSY USING THE SAME” (Trevena, Inc., priority 2019, published 2023).

The target of test [1] is T1, human sphingosine-1-phosphate receptor 1 (S1P1) (Homo sapiens, UniProt P21453). The test can be described thus: Inhibition of cAMP production (HTRF cAMP HiRange), S1P1 CHO-K1 cells. The test is classed as cell-based. To be noted: for Emax: CHO-K1, efficacy normalized to maximum efficacy of fingolimod, read-out: hS1P1 CAMP SPAN; for EC50: read-out: hS1P1 CAMP pEC50 (converted). Put shortly:
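Intracellular cAMP changes read by TR-FRET (HTRF HiRange, 1 h room temperature) after 30 min compound exposure at 37 °C. Cells: overnight-plated CHO-K1 stably expressing tagged human S1P1 with EA-β-arrestin2. Responses normalized to fingolimod.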
For orientation: cAMP levels reflect the balance of adenylyl cyclase and phosphodiesterase activity.
Target sequence in this assay (P21453 whole entry): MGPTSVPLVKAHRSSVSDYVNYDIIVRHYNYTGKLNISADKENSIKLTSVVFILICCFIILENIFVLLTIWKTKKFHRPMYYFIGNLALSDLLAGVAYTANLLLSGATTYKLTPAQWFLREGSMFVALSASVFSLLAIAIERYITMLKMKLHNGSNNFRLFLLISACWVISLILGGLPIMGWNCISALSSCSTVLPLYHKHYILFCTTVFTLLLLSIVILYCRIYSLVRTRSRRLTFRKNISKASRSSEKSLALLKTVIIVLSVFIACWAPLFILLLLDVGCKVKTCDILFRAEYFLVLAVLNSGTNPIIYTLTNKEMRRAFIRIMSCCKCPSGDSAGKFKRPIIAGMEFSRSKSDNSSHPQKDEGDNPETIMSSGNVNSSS

Test [2] addresses T1, human sphingosine-1-phosphate receptor 1 (S1P1). Description: β-Arrestin2 recruitment assay (PathHunter), S1P1 CHO-K1 cells. In kind it is cell-based. To be noted: for Emax: efficacy normalized to maximum efficacy of fingolimod, read-out: hS1P1 B-arrestin2 SPAN; for EC50: β-arrestin2 recruitment, read-out: hS1P1 B-arrestin2 pEC50 (converted). A digest of the protocol:
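Agonist-driven β-arrestin2 recruitment measured by β-galactosidase complementation after 60 min compound exposure at 37 °C and 1 h detection at room temperature. Cells: stable CHO-K1 line expressing tagged human S1P1 with EA-β-arrestin2, plated the night before. Data expressed relative to fingolimod.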
Target sequence in this assay (P21453 whole entry): as above
Target sequence in this assay (P32121 whole entry partner): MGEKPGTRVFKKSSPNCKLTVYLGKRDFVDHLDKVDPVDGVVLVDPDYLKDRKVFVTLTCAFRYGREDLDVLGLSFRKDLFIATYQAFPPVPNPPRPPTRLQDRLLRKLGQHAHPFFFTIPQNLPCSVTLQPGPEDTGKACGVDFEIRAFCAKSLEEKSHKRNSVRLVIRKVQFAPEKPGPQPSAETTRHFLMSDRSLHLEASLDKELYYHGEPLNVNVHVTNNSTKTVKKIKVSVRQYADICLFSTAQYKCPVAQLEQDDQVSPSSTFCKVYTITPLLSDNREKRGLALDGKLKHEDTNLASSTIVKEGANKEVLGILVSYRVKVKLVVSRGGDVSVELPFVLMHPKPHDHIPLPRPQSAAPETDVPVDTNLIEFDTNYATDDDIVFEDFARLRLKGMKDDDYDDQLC
Background: Recruitment of arrestin is a read-out of receptor activation apart from second messengers.

The mark [3] stands for this setting: inhibition of cAMP production, S1P1.
[4] abbreviates: inhibition of cAMP production, potency.
[5] abbreviates: CHO-K1, β-arrestin2 recruitment.

`CC(C)n1nnc2cc(-c3nc(-c4ccc5nonc5c4)no3)ccc21` [Compound 498, 5-{5-[1-(propan-2-yl)-1H-1,2,3-benzotriazol-5-yl]-1,2,4-oxadiazol-3-yl}-2,1,3-benzoxadiazole]: the Emax is more than 75% in test [1] and less than 75% in test [2] (CHO-K1). For the same molecule, the results for the EC50 in test [1] (setting [3]) and in test [2] (S1P1) were less than 0.316 µM and more than 10 µM, respectively.

Turning to `COc1cccc(-c2noc(-c3ccc4c(c3)nnn4C(C)C)n2)c1` [Compound 228, 5-(1-isopropyl-1H-benzo[d][1,2,3]triazol-5-yl)-3-(3-methoxy-phenyl)-1,2,4-oxadiazole], the Emax in test [1] (inhibition of cAMP production) and in test [2] (setting [5]) was less than 75% in each case. Moreover, the EC50 in test [1] (setting [4]) was more than 0.316 µM; in test [2] (potency), more than 10 µM.

`CCC1(CC)CC(=O)c2cc(-c3nc(-c4ccco4)no3)ccc2O1` [Compound 465, 2,2-diethyl-6-(3-(furan-2-yl)-1,2,4-oxadiazol-5-yl)chroman-4-one]: the Emax in test [1] and in test [2] (CHO-K1) was more than 75% each time. For the same molecule, the EC50 in test [1] (setting [3]) is less than 0.316 µM; in test [2] (S1P1), less than 10 µM.

As to `CCC1(CC)C/C(=N\O)c2cc(-c3nc(-c4cccnc4)no3)ccc2O1` [Compound 431, N-[(4E)-2,2-diethyl-6-[3-(pyridin-3-yl)-1,2,4-oxadiazol-5-yl]-3,4-dihydro-2H-1-benzopyran-4-ylidene]hydroxylamine], the Emax in test [1] and in test [2] (CHO-K1) was more than 75% each time. The EC50 in test [1] (setting [3]) was more than 0.316 µM; in test [2] (S1P1), more than 10 µM.

With `Cc1ccccc1-c1noc(-c2ccc3c(c2)nnn3C2CC2)n1` [Compound 171, 1-cyclopropyl-5-[3-(2-methylphenyl)-1,2,4-oxadiazol-5-yl]-1H-1,2,3-benzotriazole], the Emax in test [1] (inhibition of cAMP production) and in test [2] (setting [5]) was more than 75% throughout. The EC50 in test [1] (setting [4]) is less than 0.316 µM; in test [2] (potency), less than 10 µM.

In the case of `CC(C)n1nnc2cc(-c3noc(-c4ccc(-c5ccccc5)cc4)n3)ccc21` [Compound 248, 5-([1,1′-biphenyl]-4-yl)-3-(1-isopropyl-1H-benzo[d][1,2,3]triazol-5-yl)-1,2,4-oxadiazole], the Emax in test [1] (inhibition of cAMP production) and in test [2] (setting [5]) was less than 75% in each case. Besides, the EC50 was more than 0.316 µM in test [1] (setting [4]) and more than 10 µM in test [2] (potency).

Consider `CCC1CC(=O)c2ccc(-c3nc(-c4ccncc4)no3)cc2O1` (stereo not drawn) [Compound 589, 2-ethyl-7-[3-(pyridin-4-yl)-1,2,4-oxadiazol-5-yl]-3,4-dihydro-2H-1-benzopyran-4-one], for which the Emax is less than 75% in test [1] and more than 75% in test [2] (CHO-K1). For the same molecule, the EC50 in test [1] (setting [3]) is more than 0.316 µM; in test [2] (S1P1), more than 10 µM.

`N#Cc1cc(-c2nnc(-c3ccc4c(c3)CCC(=O)N4)o2)ccc1NCCF` [Compound 476, 2-[(2-fluoroethyl)amino]-5-[5-(2-oxo-1,2,3,4-tetrahydroquinolin-6-yl)-1,3,4-oxadiazol-2-yl]benzonitrile]: the Emax in test [1] is more than 75%; in test [2] (CHO-K1), less than 75%. Further, the EC50 in test [1] (setting [3]) is less than 0.316 µM; in test [2] (S1P1) it was less than 10 µM.

With `Cn1cnc2ccc(-c3nnc(-c4ccc(NCC(F)F)c(C#N)c4)o3)cc21` [Compound 580, 2-[(2,2-difluoro-ethyl)amino]-5-[5-(1-methyl-1H-1,3-benzodiazol-6-yl)-1,3,4-oxadiazol-2-yl]benzonitrile], the Emax in test [1] and in test [2] (CHO-K1) was more than 75% throughout. Also, the EC50 was less than 0.316 µM in test [1] (setting [3]) and less than 10 µM in test [2] (S1P1).

As for `O=C1c2cc(-c3nc(-c4ccncc4)no3)ccc2OC(CO)(CO)C1Br` (stereo not drawn) [Compound 483, 3-bromo-2,2-bis(hydroxy-methyl)-6-[3-(pyridin-4-yl)-1,2,4-oxadiazol-5-yl]-3,4-dihydro-2H-1-benzopyran-4-one], the Emax in test [1] was more than 75%; in test [2] (CHO-K1) it was less than 75%. Also, the EC50 is more than 0.316 µM in test [1] (setting [3]) and more than 10 µM in test [2] (S1P1).

`C=CCNc1ccc(-c2nc(-c3ccc4[nH]nnc4c3)no2)cc1C#N` [Compound 145, 5-(3-(1H-benzo[d] [1,2,3]triazol-5-yl)-1,2,4-oxadiazol-5-yl)-2-(allylamino)benzonitrile]: the Emax is more than 75% in test [1] (inhibition of cAMP production) and less than 75% in test [2] (setting [5]). For the same molecule, the EC50 is less than 0.316 µM in test [1] (setting [4]) and less than 10 µM in test [2] (potency).

For `CC(C)Nc1ccc(-c2ncc(-c3ccc4c(c3)nnn4C(C)C)cn2)cc1C#N` [Compound 596, 5-(5-(1-isopropyl-1H-benzo[d][1,2,3]triazol-5-yl)pyrimidin-2-yl)-2-(isopropyl-amino)benzonitrile], the Emax is less than 75% in test [1] and more than 75% in test [2] (CHO-K1). Further, the EC50 in test [1] (setting [3]) is less than 0.316 µM; in test [2] (S1P1), less than 10 µM.

On to `CCC1(CC)CC(=O)c2cc(-c3nc(-c4ccc(C)nc4)no3)ccc2O1` [Compound 550, 2,2-diethyl-6-(3-(6-methylpyridin-3-yl)-1,2,4-oxadiazol-5-yl)chroman-4-one], for which the Emax is more than 75% in test [1] and less than 75% in test [2] (CHO-K1). Moreover, the EC50 in test [1] (setting [3]) is more than 0.316 µM; in test [2] (S1P1) it was less than 10 µM.

Take `COc1cccc(-c2nc(-c3ccc4c(ccn4C(C)C)c3)no2)c1` [Compound 392, 3-(1-isopropyl-1H-indol-5-yl)-5-(3-methoxyphenyl)-1,2,4-oxadiazole]: the Emax in test [1] and in test [2] (CHO-K1) was less than 75% throughout. In addition, the figures for the EC50 in test [1] (setting [3]) and in test [2] (S1P1) were more than 0.316 µM and more than 10 µM, respectively.

As for `Cc1ccncc1-c1noc(-c2ccc3nnn(CC(C)C)c3c2)n1` [Compound 3, 1-(2-methylpropyl)-6-[3-(4-methylpyridin-3-yl)-1,2,4-oxadiazol-5-yl]-1H-1,2,3-benzotriazole], the Emax in test [1] (inhibition of cAMP production) and in test [2] (setting [5]) was more than 75% in each case. For the same molecule, the figures for the EC50 in test [1] (setting [4]) and in test [2] (potency) were less than 0.316 µM and less than 10 µM, respectively.

In the case of `CCC1(CC)CC(=O)c2cc(-c3nc(-c4cc[nH]c4)no3)ccc2O1` [Compound 485, 6-(3-(1H-pyrrol-3-yl)-1,2,4-oxadiazol-5-yl)-2,2-diethylchroman-4-one], the Emax in test [1] and in test [2] (CHO-K1) was more than 75% throughout. For the same molecule, the EC50 is less than 0.316 µM in test [1] (setting [3]) and more than 10 µM in test [2] (S1P1).

As for `CC(C)n1nnc2cc(-c3nc(-c4ccccc4O)no3)ccc21` [Compound 180, 2-(5-(1-isopropyl-1H-benzo[d][1,2,3]triazol-5-yl)-1,2,4-oxadiazol-3-yl)phenol], the Emax in test [1] (inhibition of cAMP production) and in test [2] (setting [5]) was more than 75% each time. Also, the EC50 in test [1] (setting [4]) is more than 0.316 µM; in test [2] (potency) it was more than 10 µM.

`COc1ccccc1-c1nnc(-c2ccc3c(c2)c(=O)on3C)o1` [Compound 340, 5-[5-(2-methoxyphenyl)-1,3,4-oxadiazol-2-yl]-1-methyl-1,3-dihydro-2,1-benzoxazol-3-one]: the Emax in test [1] (inhibition of cAMP production) and in test [2] (setting [5]) was less than 75% in each case. In addition, the EC50 in test [1] (setting [4]) is more than 0.316 µM; in test [2] (potency), more than 10 µM.

`CCC1(CC)CC(=O)c2cc(-c3nc(-c4ccc(S(=O)(=O)N(C)C)cc4)no3)ccc2O1` [Compound 30, 4-(5-(2,2-diethyl-4-oxochroman-6-yl)-1,2,4-oxadiazol-3-yl)-N,N-dimethylbenzene-sulfonamide]: the Emax in test [1] (inhibition of cAMP production) and in test [2] (setting [5]) was less than 75% each time. In addition, the EC50 was more than 0.316 µM in test [1] (setting [4]) and more than 10 µM in test [2] (potency).

As to `CC(C)c1cc(-c2nc(-c3ccc4c(c3)nnn4C(C)C)no2)ccn1` [Compound 167, 3-(1-isopropyl-1H-benzo[d][1,2,3]triazol-5-yl)-5-(2-isopropyl-pyridin-4-yl)-1,2,4-oxadiazole], the Emax in test [1] (inhibition of cAMP production) and in test [2] (setting [5]) was less than 75% each time. In addition, the EC50 is more than 0.316 µM in test [1] (setting [4]) and more than 10 µM in test [2] (potency).

Consider `CC(C)Nc1ccc(-c2nnc(-c3ccc4c(c3)ncn4CCO)o2)cc1C#N` [Compound 574, 5-{5-[1-(2-hydroxy-ethyl)-1H-1,3-benzodiazol-5-yl]-1,3,4-oxadiazol-2-yl}-2-[(propan-2-yl)amino]benzonitrile], for which the Emax in test [1] and in test [2] (CHO-K1) was more than 75% in each case. Moreover, the EC50 in test [1] (setting [3]) is more than 0.316 µM; in test [2] (S1P1) it was more than 10 µM.

Take `COc1ccc(-c2nc(-c3ccc4c(c3)nnn4C3CCCC3)no2)cc1` [Compound 196, 3-(1-cyclopentyl-1H-benzo[d][1,2,3]triazol-5-yl)-5-(4-methoxyphenyl)-1,2,4-oxadiazole]: the Emax in test [1] (inhibition of cAMP production) and in test [2] (setting [5]) was less than 75% throughout. Also, the EC50 was more than 0.316 µM in test [1] (setting [4]) and more than 10 µM in test [2] (potency).

In the case of `CC(C)n1nnc2cc(-c3noc(-c4cccc(COc5ccccc5)c4)n3)ccc21` [Compound 23, 3-(1-isopropyl-1H-benzo[d][1,2,3]triazol-5-yl)-5-(3-(phenoxy-methyl)phenyl)-1,2,4-oxadiazole], the Emax in test [1] (inhibition of cAMP production) and in test [2] (setting [5]) was less than 75% in each case. The EC50 in test [1] (setting [4]) is more than 0.316 µM; in test [2] (potency), more than 10 µM.

For `Cc1ccc(-c2noc(-c3ccc4c(c3)nnn4C3CCCC3)n2)cc1` [Compound 164, 1-cyclopentyl-5-[3-(4-methylphenyl)-1,2,4-oxadiazol-5-yl]-1H-1,2,3-benzotriazole], the Emax in test [1] (inhibition of cAMP production) and in test [2] (setting [5]) was less than 75% each time. Besides, the EC50 was more than 0.316 µM in test [1] (setting [4]) and more than 10 µM in test [2] (potency).
